Results taken from patent US20090048295A1, “SUBSTITUTED 5,6,7,8-TETRAHYDROQUINOLINE DERIVATIVES, COMPOSITIONS, AND METHODS OF USE THEREOF” (priority 2007, published 2009).
“And” between values parts separate entries of the source, which are not always exact repeats. Identical values can stand only once. Like-named read-outs stand apart in the source and are kept apart here.

Tests used:
[1] = biological target: T1, C5a receptor (Homo sapiens, UniProt P21730); experiment: biochemical
T1 sequence (P21730 1-350): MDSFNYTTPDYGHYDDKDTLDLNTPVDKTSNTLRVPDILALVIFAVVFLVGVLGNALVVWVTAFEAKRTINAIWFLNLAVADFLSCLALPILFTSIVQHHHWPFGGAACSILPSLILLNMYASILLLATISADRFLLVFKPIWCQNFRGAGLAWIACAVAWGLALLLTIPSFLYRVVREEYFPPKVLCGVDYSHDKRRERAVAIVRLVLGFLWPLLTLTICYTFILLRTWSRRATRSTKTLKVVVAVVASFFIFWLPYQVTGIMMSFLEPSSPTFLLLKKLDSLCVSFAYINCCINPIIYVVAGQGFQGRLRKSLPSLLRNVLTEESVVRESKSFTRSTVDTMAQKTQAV
Procedure: (§1) Competition binding assays for C5a receptors were performed by incubation of differentiated U937 cells (200,000 cells/well), test compound (1% DMSO) and [^125I]-C5a (Bolton & Hunter labeled, Perkin Elmer, specific activity=2200 Ci/mmol, 0.05 nM final) in binding buffer consisting of 50 mM HEPES, 5 mM MgCl2, 1 mM CaCl2, 0.5% protease-free BSA, 0.02% NaN3, pH 7.4. 100× solutions of test compounds were prepared in DMSO and further diluted in binding buffer. Non-specific binding was defined in wells containing 100 nM recombinant C5a. Cells and compound were pre-incubated for 30 min at RT. After addition of the radioligand, further incubation for 60 min occurred at 4° C. Cells were harvested on GF/B filters—presoaked in 0.5% polyethylenimine, followed by washing with binding buffer containing 500 mM NaCl, pH 7.4. Filter bound radioactivity was determined by liquid scintillation counting. IC50 and Ki values were calculated using non-linear regression in Graphpad Prism. Ki is calculated using the equation of Cheng and Prusoff (Biochem. Pharmacol. 1973, 22: 3099-3108)

[2] = biological target: T1, C5a receptor; experiment: Calcium Mobilization Assay (C5a-induced Ca2+ mobilization, FLIPR, differentiated U937 cells); type: cell-based; set-up: endogenous in cells; host or cells: U937 cells differentiated with dibutyryl cAMP; conditions: […] recombinant human C5a, 20 min pre-incubation, multiple values = duplicate experiments, read-out: C5a Induced Ca Mobil. Average IC50
In short: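 Differentiated U937 cells (1 mM dibutyryl cAMP, 2–3 days) loaded with Fluo-3AM, pre-incubated with compound 20 min at room temperature (1% DMSO), then stimulated with 1.5 nM recombinant human C5a. Intracellular Ca2+ fluorescence recorded on FLIPR each second to 2 min post-addition; maximal fluorescence used.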

[3] = biological target: T1, C5a receptor; experiment: [125I]-C5a Radioligand Binding Assay (competition binding, differentiated U937 cells); conditions: [125I]-C5a 0.05 nM, U937 cells, multiple values = duplicate experiments; for inhibition at 1 µM: read-out: [125I]-C5a Binding % Inhibition 1 μM, test compound 1 μM; for inhibition at 10 µM: read-out: [125I]-C5a Binding % Inhibition 10 μM, test compound 10 μM; for [125I]-C5a Binding % Inhibition 1 μM: test compound 1 μM; for [125I]-C5a Binding % Inhibition 10 μM: test compound 10 μM;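 for all read-outs here: cells preincubated with compound 30 min at room temperature, then 60 min at 4 °C with radioligand, bound counts read by scintillation, nonspecific binding defined with 100 nM C5a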
Procedure: as §1

[4] = biological target: T1, C5a receptor
Procedure: as §1

| Compound | Ki [1] [nM] | IC50 [2] [µM] | inhibition at 1 µM [3] [%] | inhibition at 10 µM [3] [%] | [125I]-C5a Binding % Inhibition 1 μM [3] | [125I]-C5a Binding % Inhibition 10 μM [3] | Ki [4] [nM] |
| --- | --- | --- | --- | --- | --- | --- | --- |
| CCc1cccc(CC)c1-c1cc(OC)c2c([n+]1[O-])CCCC2N(CC)c1cccc2ccccc12 (racemic) [Compound 19, (±)-[2-(2,6-Diethyl-phenyl)-4-methoxy-1-oxy-5,6,7,8-tetrahydro-quinolin-5-yl]-ethyl-naphthlen-1-yl-amine] | 106 | 0.161 | 81 | 86 | 82% | 98% |  |
| CCN(c1cccc2ccccc12)C1CCCc2nc(-c3c(OC)cccc3OC)cc(OC)c21 (stereo not drawn) [Compound 58] | 1160 | 1.77 | 59 | 83 | 46% | 88% |  |
| CCc1cccc(CC)c1-c1cc(Cl)c2c(n1)CCCC2N(CC)c1cccc2ccccc12 (stereo not drawn) [Compound 60] |  | 1.97 |  | 83 |  | 85% | 179 |
| CCN(c1cccc2ccccc12)C1CCCc2nc(-c3ccccc3F)cc(OC)c21 (stereo not drawn) [Compound 73] |  | 4.59 |  | 80 | 55% and 34% | 70% | 3690 |
| CCN(c1cccc2ccccc12)C1CCCc2nc(-c3cccc4ccccc34)cc(OC)c21 (stereo not drawn) [Compound 78] |  | 5.86 | 71 | 85 | 72% | 95% | 368 |
| CCc1cccc(CC)c1-c1cc(OC)c2c(n1)CCCC2N(C)c1ccccc1 (stereo not drawn) [Compound 82] |  | 7.94 | 66 | 81 | 55% | 76% | 678 |

More lines, main results first:

| Ki [1] [nM] | IC50 [2] [µM] | inhibition at 1 µM [3] [%] | inhibition at 10 µM [3] [%] | [125I]-C5a Binding % Inhibition 1 μM [3] | [125I]-C5a Binding % Inhibition 10 μM [3] | Compound | Ki [4] [nM] |
| --- | --- | --- | --- | --- | --- | --- | --- |
| 7.3 | 0.165 | 84 | 93 | 99% | 102% and 100% | CCc1cccc(CC)c1-c1cc(OC)c2c(n1)CCCC2N(C)c1cccc2ccccc12 (racemic) [Compound 20, (±)-[2-(2,6-Diethyl-phenyl)-4-methoxy-5,6,7,8-tetrahydro-quinolin-5-yl]-methyl-naphthlen-1-yl-amine] |  |
| 86 | 0.647 | 81 | 87 | 90% | 98% | CCc1ccccc1-c1cc(OC)c2c(n1)CCCC2N(CC)c1cccc2ccccc12 (racemic) [Compound 39, (±)-Ethyl-[2-(2-ethyl-phenyl)-4-methoxy-5,6,7,8-tetrahydro-quinolin-5-yl]-naphthlen-1-yl-amine] |  |
| 1060 | > 10 |  | 83 | 65% and 43% | 78% | CCc1cccc(CC)c1-c1ccc2c(n1)CCCC2N(CC)c1cccc2ccccc12 (racemic) [Compound 109, (±)-[2-(2,6-Diethyl-phenyl)-5,6,7,8-tetrahydro-quinolin-5-yl]-ethyl-naphthlen-1-yl-amine] |  |
| 963 | > 10 | 56 | 75 | 49% | 79% | CCc1cccc(CC)c1-c1cc(OC)c2c(n1)CCCC2N(CC)Cc1ccccc1 (stereo not drawn) [Compound 85] |  |
| 1700 | > 10 |  | 75 | 71% and 37% | 77% | CCc1cccc(CC)c1-c1cc(OC)c2c(n1)CCCC2N1Cc2ccccc2C1 (stereo not drawn) [Compound 89] |  |
| 409 | > 10 | 87 | 86 | 71% | 84% | CCc1cccc(CC)c1-c1cc(OC)c2c(n1)CCCC2N(C)Cc1cccc2ccccc12 (stereo not drawn) [Compound 90] |  |
| 2060 | > 10 |  | 68 | 45% and 24% | 80% | CCc1cccc(CC)c1-c1cc(OC)c2c(n1)CCCC2N(C)C1Cc2ccccc2C1 (stereo not drawn) [Compound 95] |  |
